Laboratory results published in patent US6878702B2, “Anti-inflammatory agents” (Orion Corporation, priority 2000, dated 2005).

Legend:
[1] = tested on: mitochondrial KATP channel; assay: Mitochondrial ATP dependent potassium channel opening: membrane potential (ΔΨ) of isolated liver mitochondria, rhodamine 123; assay type: biochemical, rat; settings: for ΔΨ of rat liver mitochondria in the choline chloride medium / ΔΨ of rat liver mitochondria in KCl medium: <2.58 μM concentration; for ΔΨ of rat liver mitochondria in KCl medium: respiring only on endogenous substrates, KCl medium with 400 μM ATP and 1 mg oligomycin/mg protein, FIG. 2; for effect on ΔΨ in presence of 5-hydroxydecanoate (5-HD), selective blocker of mitochondrial KATP channel: with 5-HD, data not shown
Description: In respiring mitochondria, the decrease in ΔΨ due to the KATP channel opening is compensated by an increased respiration rate. When mitochondria respires only on endogenous substrates, and phosphorylation is blocked by oligomycin, the respiration rate is sufficient to generate a high ΔΨ. However, opening of KATP channels leads to a decrease in ΔΨ, which could not be compensated by increased respiration rate. In such a model, opening of KATP channel is unmasked, and can be recorded. This model was applied to test if opening could be induced by dextrosimendan and levosimendan.
Mitochondria were isolated from rat livers by differential centrifugation in medium containing 210 mM mannitol, 70 mM sucrose, 10 mM Hepes, 1 mM EGTA and 5 mg/ml bovine serum albumin, pH 7.4. The mitochondrial protein concentration was determined by modified Biuret method. Oxygen consumption of isolated liver mitochondria was recorded at 25° C. by means of the Clark-type electrode system in the KCl medium (100 mM KCl, 2 mM KH2PO4, 10 mM HEPES, 1 mM MgCl2, pH 7.4 with TRIZMA base) or choline chloride medium (100 mM choline chloride, 2 mM NaH2PO4, 10 mM HEPES, 1 mM MgCl2, pH 7.4 with TRIZMA base). The final mitochondrial protein concentration used in experiments was 1 mg protein/ml. For studies of respiring mitochondria, 5 mM succinate in the presence of 5 μM rotenone was used as substrate.
Membrane potential (ΔΨ) of liver mitochondria was measured with rhodamine 123 as a fluorescent probe using the excitation at 503 nm and emission at 527 nm at room temperature with the Hitachi F4000 fluorometer. The difference in fluorescense between mitochondria with addition of FCCP (0.4 μM) and without it was taken as 100%, and decrease in membrane potential by the tested compounds was expressed in % of FCCP effect.

[2] = tested on: carrageenan-induced rat paw edema; assay: Carrageenan-induced paw edema in rats; assay type: in vivo; settings: 3 h, male Wistar rats
Protocol: The acute inflammation was induced to the male Wistar rats by an injection of 0.1 ml of 1 or 2% lambda-carrageenan solution into the subplantar tissue of the right hind paw (=1 or 2 mg/paw). Three hours after the carrageenan injection the rats were killed. Both hind paws were cut off just above the heel and weighed. The test compounds (levosimendan and dextrosimendan) were administered orally 30 minutes before the induction of inflammation using dosing levels:
Control rats were included in each experiment. The difference between the weight of the right and the left hind paw was regarded as swelling. 9-10 animals were included in each group.

SMILES	ΔΨ of rat liver mitochondria in the choline chloride medium [1]	ΔΨ of rat liver mitochondria in KCl medium [1]	effect on ΔΨ in presence of 5-hydroxydecanoate (5-HD), selective blocker of mitochondrial KATP channel [1]	carrageenan-induced rat paw edema (swelling, weight difference of hind paws) ([2]; carrageenan 2 mg/paw, 10, 30 and 100 mg/kg orally 30 min before, FIG. 3b)	melting point	carrageenan-induced rat paw edema (swelling, weight difference of hind paws) ([2]; carrageenan 1 mg/paw, 0.1, 1 and 10 mg/kg orally 30 min before, FIG. 3a)
CC1CC(=O)NN=C1c1ccc(NN=C(C#N)C#N)cc1 (single isomer, unassigned; (+)) [Dextrosimendan]	did not significantly change	decreased	abolished	inhibited the carrageenan-induced rat paw edema significantly	–	–
CC1SC(=O)NN=C1c1ccc(NN=C(C#N)C#N)cc1 (single isomer, unassigned; (+)) [compound B, (+)-[[4-(3,6-dihydro-6-methyl-2-oxo-2H-1,3,4-thiadiazin-5-yl)phenyl]hydrazono]propanedinitrile]	–	–	–	–	125 to 128 °C	–
C[C@@H]1CC(=O)NN=C1c1ccc(NN=C(C#N)C#N)cc1 [levosimendan, reference compound]	did not significantly change	decreased	abolished	–	–	inhibited the carrageenan-induced rat paw edema significantly
